Values of other authors in US7618664B2 (Cooperatieve Verkoop-en Productievereniging Van …, priority 2001, dated 2009).

Settings: human body

Substance: calcium gluconate
- toxicity: essentially not show any toxicity
